Earlier results in US20260102333A1, “TOPICAL DELIVERY OF ANTIFUNGAL AGENTS FOR TREATING FUNGAL INFECTIONS” (LYOTROPIC DELIVERY SYSTEMS LTD., priority 2022, published 2026).
Where a name gives a salt, the structure may show the parent alone.

Columns and labels:
[1] = test system: Trichophyton mentagrophytes

- MIC50 (minimum inhibitory concentration required for 50% inhibition) [1]: 0.03 to 0.5 µg/mL
- MIC50 (minimum inhibitory concentration required for 50% inhibition) (Trichophyton rubrum): 0.03 to 0.5 µg/mL
SMILES: CN(C/C=C/C#CC(C)(C)C)Cc1cccc2ccccc12 [TRB, terbinafine hydrochloride]
